Patent publication US20250316716A1, “ELECTROCHEMICAL OXYGEN REDUCTION CATALYST” (TOYOTA JIDOSHA KABUSHIKI KAISHA, priority 2024, published 2025)

What was measured:
[1] = Alcohol solubility of the modifier; type: physicochemical; conditions: organic solvent or mixture, alcohol (diacetone alcohol or ethanol)
[2] = Water solubility of the modifier; type: physicochemical

SMILES	solubility [1] [µg/mL]	solubility [2] [µg/mL]
Nc1nc(N)nc(N)n1 [Melamine, melamine]	≥ 3000	≥ 3000
NC1=NC2=NC(N)=NC3=NC(N)=NC(=N1)N23 [Melem, melem]	< 3000	< 3000
